In test [1] the test system is Epidermal growth factor receptor (Homo sapiens), P00533 [UNDEFINED MUTATION]. Briefly: Inhibition of EGFR L747-E749del/A750P mutant (unknown origin) assessed as remaining activity at 1 uM by Kinome scan method relative to control.
In test [2] the target is Receptor-type tyrosine-protein kinase FLT3 (Homo sapiens) (UniProt P36888). Briefly: Inhibition of FLT3 (unknown origin) assessed as remaining activity at 1 uM by Kinome scan method relative to control.
Test [3] addresses Receptor-interacting serine/threonine-protein kinase 1 (Homo sapiens) (UniProt Q13546). Briefly: Inhibition of RIPK1 (unknown origin) assessed as remaining activity at 1 uM by Kinome scan method relative to control.
The target in test [4] is Serine/threonine-protein kinase TAO1 (Homo sapiens) (UniProt Q7L7X3). Briefly: Inhibition of TAOK1 (unknown origin) assessed as remaining activity at 1 uM by Kinome scan method relative to control.
Serine/threonine-protein kinase TAO1 (Homo sapiens), sequence (Q7L7X3 whole entry): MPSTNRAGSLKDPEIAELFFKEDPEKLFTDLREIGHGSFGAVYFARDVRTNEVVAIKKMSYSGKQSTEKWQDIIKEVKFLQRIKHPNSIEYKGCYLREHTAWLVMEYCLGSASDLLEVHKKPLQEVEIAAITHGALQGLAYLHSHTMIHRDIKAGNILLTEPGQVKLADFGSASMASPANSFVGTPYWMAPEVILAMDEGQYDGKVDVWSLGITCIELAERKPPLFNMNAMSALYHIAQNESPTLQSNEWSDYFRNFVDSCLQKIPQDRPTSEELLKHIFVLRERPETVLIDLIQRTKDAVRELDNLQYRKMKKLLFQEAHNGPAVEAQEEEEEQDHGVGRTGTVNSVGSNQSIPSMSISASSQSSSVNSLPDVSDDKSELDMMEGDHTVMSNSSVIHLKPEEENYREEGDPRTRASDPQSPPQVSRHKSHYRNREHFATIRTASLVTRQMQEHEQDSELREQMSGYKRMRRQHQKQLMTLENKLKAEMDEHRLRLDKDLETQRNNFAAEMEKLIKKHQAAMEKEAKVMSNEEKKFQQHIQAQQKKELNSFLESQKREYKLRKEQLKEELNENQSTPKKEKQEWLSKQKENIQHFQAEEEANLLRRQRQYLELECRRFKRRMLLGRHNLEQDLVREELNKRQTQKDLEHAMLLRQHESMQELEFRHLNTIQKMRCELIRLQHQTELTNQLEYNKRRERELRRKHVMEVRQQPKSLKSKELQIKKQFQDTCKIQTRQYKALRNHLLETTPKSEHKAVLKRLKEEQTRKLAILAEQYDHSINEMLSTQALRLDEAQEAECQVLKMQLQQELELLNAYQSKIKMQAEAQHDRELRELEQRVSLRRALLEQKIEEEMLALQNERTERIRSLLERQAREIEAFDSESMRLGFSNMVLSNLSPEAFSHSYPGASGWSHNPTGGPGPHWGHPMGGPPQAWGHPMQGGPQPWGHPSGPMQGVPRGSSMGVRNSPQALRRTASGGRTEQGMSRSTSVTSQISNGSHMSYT
Test [5] addresses Tyrosine-protein kinase receptor UFO (Homo sapiens) (UniProt P30530). The experiment in a line: Inhibition of human AXL assessed as residual activity at 1 uM using polyEy as substrate in presence of 33P-ATP by ProQinase assay relative to control.
Test [6] deals with Cyclin-dependent kinase 4/cyclin D1 (Homo sapiens) (UniProt P11802+P24385). Briefly: Inhibition of human CDK4/CyclinD1 assessed as residual activity at 1 uM using RBER-CHKtide as substrate in presence of 33P-ATP by ProQinase assay relative to control. Format: protein-complex assay.
For test [7], the target named is Cyclin-dependent kinase 5/CDK5 activator 1 (Homo sapiens) (UniProt Q00535+Q15078). Briefly: Inhibition of human CDK5/p25NCK assessed as residual activity at 1 uM using RBER-CHKtide as substrate in presence of 33P-ATP by ProQinase assay relative to control. In kind it is protein-complex assay.
Test [8] deals with CDK6/cyclin D1 (Homo sapiens) (UniProt P24385+Q00534). Briefly: Inhibition of human CDK6/CycD1 assessed as residual activity at 1 uM using RBER-CHKtide as substrate in presence of 33P-ATP by ProQinase assay relative to control. Format: protein-complex assay.
For test [9], the target named is Dual specificity protein kinase CLK4 (Homo sapiens) (UniProt Q9HAZ1). Briefly: Inhibition of human CLK4 assessed as residual activity at 1 uM using MBP as substrate in presence of 33P-ATP by ProQinase assay relative to control.
Dual specificity protein kinase CLK4 (Homo sapiens), sequence (Q9HAZ1 whole entry, looked up): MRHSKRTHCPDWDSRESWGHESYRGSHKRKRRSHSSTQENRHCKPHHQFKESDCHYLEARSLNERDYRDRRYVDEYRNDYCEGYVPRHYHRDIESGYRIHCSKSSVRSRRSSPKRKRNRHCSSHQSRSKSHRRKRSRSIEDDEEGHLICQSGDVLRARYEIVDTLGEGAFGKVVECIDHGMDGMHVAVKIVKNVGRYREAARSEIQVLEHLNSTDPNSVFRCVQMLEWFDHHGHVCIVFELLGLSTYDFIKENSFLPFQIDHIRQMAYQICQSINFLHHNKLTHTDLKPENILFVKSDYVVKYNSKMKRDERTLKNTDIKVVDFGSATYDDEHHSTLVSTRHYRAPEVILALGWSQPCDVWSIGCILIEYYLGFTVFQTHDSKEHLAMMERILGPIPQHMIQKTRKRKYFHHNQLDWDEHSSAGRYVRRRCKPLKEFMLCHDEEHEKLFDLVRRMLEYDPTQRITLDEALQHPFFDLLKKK
Test [10] has as its target Interleukin-1 receptor-associated kinase 4 (Homo sapiens) (UniProt Q9NWZ3). Briefly: Inhibition of human IRAK4 assessed as residual activity at 1 uM using RB-CTF as substrate in presence of 33P-ATP by ProQinase assay relative to control.
In test [11] the target is LIM domain kinase 1 (Homo sapiens) (UniProt P53667). The experiment in a line: Inhibition of human LIMK1 assessed as residual activity at 1 uM using CFL2 as substrate in presence of 33P-ATP by ProQinase assay relative to control.
LIM domain kinase 1 (Homo sapiens), sequence (P53667 whole entry, looked up, the tested form may be a part): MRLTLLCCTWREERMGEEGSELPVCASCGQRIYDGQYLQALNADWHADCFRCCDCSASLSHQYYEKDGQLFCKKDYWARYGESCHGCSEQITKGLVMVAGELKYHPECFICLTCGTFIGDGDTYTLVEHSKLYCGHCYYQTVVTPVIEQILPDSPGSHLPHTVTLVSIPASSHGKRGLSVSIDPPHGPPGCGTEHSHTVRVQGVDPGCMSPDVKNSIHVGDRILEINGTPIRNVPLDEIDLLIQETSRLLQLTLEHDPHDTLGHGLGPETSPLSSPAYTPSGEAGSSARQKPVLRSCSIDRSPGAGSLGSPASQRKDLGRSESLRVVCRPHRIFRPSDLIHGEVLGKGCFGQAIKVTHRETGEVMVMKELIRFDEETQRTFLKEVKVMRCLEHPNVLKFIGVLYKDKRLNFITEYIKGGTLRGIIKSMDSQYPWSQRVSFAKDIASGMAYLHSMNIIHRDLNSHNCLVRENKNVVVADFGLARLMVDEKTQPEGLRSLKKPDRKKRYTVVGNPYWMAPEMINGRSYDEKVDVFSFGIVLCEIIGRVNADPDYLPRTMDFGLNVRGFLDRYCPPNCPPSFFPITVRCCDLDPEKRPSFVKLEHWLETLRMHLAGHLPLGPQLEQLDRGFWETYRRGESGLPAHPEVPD
Test [12] deals with Leukocyte tyrosine kinase receptor (Homo sapiens) (UniProt P29376). The experiment in a line: Inhibition of human LTK assessed as residual activity at 1 uM using polyEY as substrate in presence of 33P-ATP by ProQinase assay relative to control.
For test [13], the target named is T1, Serine/threonine-protein kinase PLK4 (Homo sapiens) (UniProt O00444).
T1 sequence (whole entry): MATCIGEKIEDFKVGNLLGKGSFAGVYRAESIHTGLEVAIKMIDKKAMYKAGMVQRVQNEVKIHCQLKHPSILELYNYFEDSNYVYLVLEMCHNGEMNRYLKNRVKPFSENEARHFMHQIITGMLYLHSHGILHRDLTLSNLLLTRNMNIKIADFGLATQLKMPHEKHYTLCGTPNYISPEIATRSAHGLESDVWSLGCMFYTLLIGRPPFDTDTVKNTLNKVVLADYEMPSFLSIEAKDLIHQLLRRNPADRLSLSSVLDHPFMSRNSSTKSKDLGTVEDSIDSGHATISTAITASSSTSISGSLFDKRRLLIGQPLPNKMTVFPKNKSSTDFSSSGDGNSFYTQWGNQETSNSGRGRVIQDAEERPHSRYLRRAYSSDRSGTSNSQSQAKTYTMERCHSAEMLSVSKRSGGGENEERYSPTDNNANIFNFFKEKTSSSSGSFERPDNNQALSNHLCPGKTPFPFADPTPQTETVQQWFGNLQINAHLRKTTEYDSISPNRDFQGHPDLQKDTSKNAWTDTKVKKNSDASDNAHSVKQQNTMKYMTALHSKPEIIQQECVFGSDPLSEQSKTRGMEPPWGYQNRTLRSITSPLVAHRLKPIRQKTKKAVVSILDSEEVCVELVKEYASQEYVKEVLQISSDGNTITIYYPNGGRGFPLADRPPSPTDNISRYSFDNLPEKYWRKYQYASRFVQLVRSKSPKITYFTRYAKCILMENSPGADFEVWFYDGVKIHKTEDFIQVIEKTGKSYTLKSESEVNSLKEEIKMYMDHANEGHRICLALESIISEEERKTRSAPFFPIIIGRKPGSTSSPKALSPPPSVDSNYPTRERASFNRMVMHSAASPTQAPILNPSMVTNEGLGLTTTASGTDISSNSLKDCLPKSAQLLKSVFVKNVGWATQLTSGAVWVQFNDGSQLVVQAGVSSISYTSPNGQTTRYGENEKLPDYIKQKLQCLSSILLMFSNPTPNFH
The experiment in a line: Inhibition of human SAK assessed as residual activity at 1 uM using p38-alpha KA as substrate in presence of 33P-ATP by ProQinase assay relative to control.

Test [14] addresses T2, TGF-beta receptor type-1 (Homo sapiens) (UniProt P36897).
T2 sequence (whole entry): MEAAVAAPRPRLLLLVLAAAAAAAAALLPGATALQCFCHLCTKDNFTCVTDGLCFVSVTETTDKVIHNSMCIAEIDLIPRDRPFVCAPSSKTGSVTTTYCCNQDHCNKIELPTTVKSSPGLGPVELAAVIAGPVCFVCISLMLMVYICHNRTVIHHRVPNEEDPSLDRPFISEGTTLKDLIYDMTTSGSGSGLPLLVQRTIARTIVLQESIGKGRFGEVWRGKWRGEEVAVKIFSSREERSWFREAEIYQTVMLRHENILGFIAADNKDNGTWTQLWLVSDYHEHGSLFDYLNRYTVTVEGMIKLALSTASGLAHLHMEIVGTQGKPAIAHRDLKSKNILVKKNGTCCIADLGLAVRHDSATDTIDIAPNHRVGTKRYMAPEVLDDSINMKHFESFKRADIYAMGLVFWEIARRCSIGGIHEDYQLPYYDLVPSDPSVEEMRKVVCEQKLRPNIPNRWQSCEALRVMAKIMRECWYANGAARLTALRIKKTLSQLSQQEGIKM
Briefly: Inhibition of human TGFBR1 assessed as residual activity at 1 uM using RBER-GSK3(14-27) as substrate in presence of 33P-ATP by ProQinase assay relative to control.

Test [15] can be described thus: Anti-inflammatory activity against human derived high respond PBMC cells assessed as inhibition in stimulated IL-1alpha cytokine release incubated for 2 hrs in the presence of LPS/SEB/aCD28 by Luminex based sandwich immunoassay. Format: functional, cell-based.

pIC50: −log10 of the molar value.

Receptor-type tyrosine-protein kinase FLT3 (Homo sapiens), sequence (P36888 whole entry): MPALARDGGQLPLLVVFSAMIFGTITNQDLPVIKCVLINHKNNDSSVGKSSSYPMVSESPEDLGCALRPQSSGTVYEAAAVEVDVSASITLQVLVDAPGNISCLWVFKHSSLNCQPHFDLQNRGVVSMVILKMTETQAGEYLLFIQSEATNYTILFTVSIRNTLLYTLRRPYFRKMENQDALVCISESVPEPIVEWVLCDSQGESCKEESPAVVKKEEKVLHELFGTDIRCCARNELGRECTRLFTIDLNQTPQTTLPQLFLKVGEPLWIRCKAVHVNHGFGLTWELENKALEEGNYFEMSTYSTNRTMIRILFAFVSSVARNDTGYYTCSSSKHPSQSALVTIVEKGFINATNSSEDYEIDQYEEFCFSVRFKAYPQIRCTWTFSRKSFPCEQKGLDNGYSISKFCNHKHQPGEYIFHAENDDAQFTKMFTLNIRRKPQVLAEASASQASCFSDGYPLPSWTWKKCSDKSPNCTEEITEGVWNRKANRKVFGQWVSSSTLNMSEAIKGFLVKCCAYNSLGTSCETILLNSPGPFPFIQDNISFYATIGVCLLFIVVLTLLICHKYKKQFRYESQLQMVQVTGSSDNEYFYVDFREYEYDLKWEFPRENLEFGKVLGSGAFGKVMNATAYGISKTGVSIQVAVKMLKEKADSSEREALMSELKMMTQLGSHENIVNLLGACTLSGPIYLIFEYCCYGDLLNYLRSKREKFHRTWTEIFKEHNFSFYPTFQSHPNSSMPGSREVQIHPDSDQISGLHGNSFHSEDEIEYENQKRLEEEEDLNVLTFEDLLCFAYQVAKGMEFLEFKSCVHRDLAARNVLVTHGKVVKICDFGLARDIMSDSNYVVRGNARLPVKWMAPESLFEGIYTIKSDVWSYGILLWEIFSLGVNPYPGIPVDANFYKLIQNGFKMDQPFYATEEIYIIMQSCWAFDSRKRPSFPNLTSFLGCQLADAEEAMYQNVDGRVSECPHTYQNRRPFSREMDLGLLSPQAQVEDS
Tyrosine-protein kinase receptor UFO (Homo sapiens), sequence (P30530 whole entry): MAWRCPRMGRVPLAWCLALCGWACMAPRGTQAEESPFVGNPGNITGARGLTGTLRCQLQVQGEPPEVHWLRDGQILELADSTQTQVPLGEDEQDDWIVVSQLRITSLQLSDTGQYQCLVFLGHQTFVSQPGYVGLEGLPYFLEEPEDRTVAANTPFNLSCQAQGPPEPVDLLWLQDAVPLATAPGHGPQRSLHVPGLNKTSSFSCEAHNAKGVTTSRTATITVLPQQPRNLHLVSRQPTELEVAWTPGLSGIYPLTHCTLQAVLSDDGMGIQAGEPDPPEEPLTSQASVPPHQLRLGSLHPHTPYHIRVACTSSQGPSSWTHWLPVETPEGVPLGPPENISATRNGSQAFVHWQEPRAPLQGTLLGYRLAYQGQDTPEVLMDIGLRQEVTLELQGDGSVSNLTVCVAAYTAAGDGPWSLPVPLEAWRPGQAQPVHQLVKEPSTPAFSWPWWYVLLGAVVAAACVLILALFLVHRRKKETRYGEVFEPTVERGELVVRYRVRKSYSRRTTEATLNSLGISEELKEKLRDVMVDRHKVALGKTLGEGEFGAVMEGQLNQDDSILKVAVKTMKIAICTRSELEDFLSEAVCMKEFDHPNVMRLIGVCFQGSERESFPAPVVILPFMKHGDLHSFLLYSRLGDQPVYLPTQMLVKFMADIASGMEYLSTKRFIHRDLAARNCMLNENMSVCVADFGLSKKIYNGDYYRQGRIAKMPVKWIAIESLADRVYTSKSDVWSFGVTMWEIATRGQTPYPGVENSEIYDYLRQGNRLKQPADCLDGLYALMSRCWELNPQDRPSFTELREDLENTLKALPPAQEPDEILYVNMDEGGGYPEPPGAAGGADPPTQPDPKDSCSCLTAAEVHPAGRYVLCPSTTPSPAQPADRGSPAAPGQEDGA
Receptor-interacting serine/threonine-protein kinase 1 (Homo sapiens), sequence (Q13546 whole entry): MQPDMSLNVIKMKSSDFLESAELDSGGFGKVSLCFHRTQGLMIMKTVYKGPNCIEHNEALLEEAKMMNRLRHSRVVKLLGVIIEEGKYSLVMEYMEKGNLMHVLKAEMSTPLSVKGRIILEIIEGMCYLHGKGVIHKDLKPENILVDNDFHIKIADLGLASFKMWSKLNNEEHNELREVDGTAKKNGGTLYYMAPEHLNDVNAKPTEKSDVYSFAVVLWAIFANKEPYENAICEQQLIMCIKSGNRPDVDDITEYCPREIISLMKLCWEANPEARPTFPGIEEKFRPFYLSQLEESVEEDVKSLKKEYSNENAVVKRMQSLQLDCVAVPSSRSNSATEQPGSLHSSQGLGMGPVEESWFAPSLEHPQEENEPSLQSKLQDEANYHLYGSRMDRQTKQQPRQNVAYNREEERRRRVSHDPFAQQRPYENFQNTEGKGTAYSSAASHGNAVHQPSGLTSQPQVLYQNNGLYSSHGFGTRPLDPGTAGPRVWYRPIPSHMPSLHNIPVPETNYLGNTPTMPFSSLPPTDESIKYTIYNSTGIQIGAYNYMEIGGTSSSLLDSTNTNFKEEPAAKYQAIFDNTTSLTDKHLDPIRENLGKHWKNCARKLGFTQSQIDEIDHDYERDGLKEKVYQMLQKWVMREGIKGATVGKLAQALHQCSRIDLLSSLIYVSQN

Consider `O=C1c2ccc(Nc3ccc(F)cc3F)cc2CCc2ccc(OC[C@H](O)CO)cc21` [Skepinone-L], for which the Activity came to 82% in [1]; 97% in test [2]; 100% in test [3]; 100% in test [4]; 100% in test [5]; 92% in test [6]. The Activity was 99% in [7]; 88% in test [8]; 100% in test [9]; 104% in test [10]; 109% in test [11]; 97% in test [12]. In addition, the Activity in [13] came out at 62%; in [14], 93%. Further, in test [15], the pIC50 was 6.92.

The record behind these values is ChEMBL document CHEMBL5696441 (Nat Chem Biol, 2011).
